According to ChEMBL document CHEMBL1139194, “Antitumor agents. 256. Conjugation of paclitaxel with other antitumor agents: evaluation of novel conjugates as cytotoxic agents” (Bioorg Med Chem Lett, 2007):
Activity calls are given as the source filed them. The rule behind the calls is not given here.

What was measured:
[1] = tested on: PC-3; assay: Cytotoxicity against human PC3 cells by sulforhodamine B assay; assay type: functional; conditions: read-out: ED50 (the source's name)
[2] = tested on: MCF7; assay: Cytotoxicity against human MCF7 cells by sulforhodamine B assay; assay type: functional; conditions: read-out: ED50 (the source's name)
[3] = (§1) Cytotoxicity against multi drug-resistant human KBVIN cells by sulforhodamine B assay; assay type: functional; conditions: read-out: ED50 (the source's name)
[4] = tested on: KB; assay: Cytotoxicity against human KB cells by sulforhodamine B assay; assay type: functional; conditions: read-out: ED50 (the source's name)
[5] = tested on: A549; assay: Cytotoxicity against human A549 cells by sulforhodamine B assay; assay type: functional; conditions: read-out: ED50 (the source's name)
[6] = tested on: 1A9; assay: Cytotoxicity against human 1A9 cells by sulforhodamine B assay; assay type: functional; conditions: read-out: ED50 (the source's name)
[7] = tested on: LNCaP; assay: Cytotoxicity against human LNCAP cells by sulforhodamine B assay; assay type: functional; conditions: read-out: ED50 (the source's name)
[8] = tested on: DU-145; assay: Cytotoxicity against human DU145 cells by sulforhodamine B assay; assay type: functional; conditions: read-out: ED50 (the source's name)
[9] = tested on: HUVEC; assay: Antiangiogenesis activity against HUVEC cells; assay type: functional; conditions: Homo sapiens, read-out: ED50 (the source's name)
[10] = Cytotoxicity against multi drug-resistant human KBVIN cells at 20 ug/mL by sulforhodamine B assay; assay type: functional
[11] = Cytotoxicity against human MRC5 cells by sulforhodamine B assay; assay type: cell-based; conditions: read-out: ED50 (the source's name)
[12] = tested on: KBVIN; assay: as §1; assay type: functional

Row | SMILES | EC50 [1] | EC50 [2] | EC50 [3] | EC50 [4] | EC50 [5] | EC50 [6] | EC50 [7] | EC50 [8] | EC50 [9] | inhibition at 20 µg/mL [10] | CC50 [11] | Activity [12]
1 | CC[C@@]1(O)C(=O)OCc2c1cc1n(c2=O)Cc2cc3ccccc3nc2-1 [CAMPTOTHECIN] | 16.7 nM | 3.2 nM | 15 nM | 20.9 nM | 6.9 nM | 3.2 nM | 2 nM | 10.9 nM |  |  |  | 
2 | COc1cc([C@@H]2c3cc4c(cc3[C@@H](/N=C/c3ccc(C(=O)O[C@H]5C[C@H]6OC[C@@]6(OC(C)=O)[C@H]6[C@H](OC(=O)c7ccccc7)[C@]7(O)C[C@H](OC(=O)[C@H](O)[C@@H](NC(=O)c8ccccc8)c8ccccc8)C(C)=C([C@@H](OC(C)=O)C(=O)[C@]56C)C7(C)C)cc3)[C@H]3COC(=O)[C@H]23)OCO4)cc(OC)c1O | 145 nM | 48.6 nM | 6220 nM | 53.8 nM | 111 nM | 60.1 nM | 90.1 nM | 139 nM | 230 nM |  |  | 
3 | COc1cc2c(c(OC)c1OC(=O)CCC(=O)O[C@@H](C(=O)O[C@H]1C[C@@]3(O)[C@@H](OC(=O)c4ccccc4)[C@@H]4[C@]5(OC(C)=O)CO[C@@H]5C[C@H](O)[C@@]4(C)C(=O)[C@H](OC(C)=O)C(=C1C)C3(C)C)[C@@H](NC(=O)c1ccccc1)c1ccccc1)-c1ccc(SC)c(=O)cc1[C@@H](NC(C)=O)CC2 | 71.8 nM | 24.7 nM |  | 17 nM | 23.2 nM | 10.3 nM | 19.5 nM | 29.8 nM | 9.33 nM | < 50% |  | 
4 | CC(=O)O[C@H]1C(=O)[C@@]2(C)[C@H]([C@H](OC(=O)c3ccccc3)[C@]3(O)C[C@H](OC(=O)[C@H](O)[C@@H](NC(=O)c4ccccc4)c4ccccc4)C(C)=C1C3(C)C)[C@]1(OC(C)=O)CO[C@@H]1C[C@@H]2O [PACLITAXEL] | 55.5 nM | 1.1 nM | 311 nM | 1.8 nM | 2.3 nM | 1 nM | 2.6 nM | 1.3 nM |  |  |  | 
5 | COc1ccc2c(c1)[C@@H](/N=C/c1ccc(C(=O)O[C@H]3C[C@H]4OC[C@@]4(OC(C)=O)[C@H]4[C@H](OC(=O)c5ccccc5)[C@]5(O)C[C@H](OC(=O)[C@H](O)[C@@H](NC(=O)c6ccccc6)c6ccccc6)C(C)=C([C@@H](OC(C)=O)C(=O)[C@]34C)C5(C)C)cc1)CCc1cc(OC)c(OC)c(OC)c1-2 |  |  | 308 nM | 2.3 nM | 3.8 nM | 2.3 nM |  |  | 293 nM |  |  | 
6 | COc1cc([C@@H]2c3cc4c(cc3[C@@H](Nc3ccc(C(=O)NCCCC(=O)O[C@@H](C(=O)O[C@H]5C[C@@]6(O)[C@@H](OC(=O)c7ccccc7)[C@@H]7[C@]8(OC(C)=O)CO[C@@H]8C[C@H](O)[C@@]7(C)C(=O)[C@H](OC(C)=O)C(=C5C)C6(C)C)[C@@H](NC(=O)c5ccccc5)c5ccccc5)cc3)[C@H]3COC(=O)[C@H]23)OCO4)cc(OC)c1O | 42.8 nM | 22.1 nM | 6230 nM | 13.9 nM | 23.7 nM | 8.1 nM | 10.2 nM | 32.5 nM |  |  | 6170 nM | 
7 | COc1cc([C@@H]2c3cc4c(cc3[C@@H](O[C@H]3O[C@H]5CO[C@H](C)O[C@@H]5[C@@H](O)[C@@H]3O)[C@H]3COC(=O)[C@H]23)OCO4)cc(OC)c1O | 9450 nM | 11700 nM | 14400 nM | 1360 nM | 1610 nM | 285 nM | 530 nM | 1600 nM |  |  | > 30 nM | 
8 | COc1cc2c(c(OC)c1O)-c1ccc(OC)c(=O)cc1[C@@H](NC(C)=O)CC2 [2-DESMETHYLCOLCHICIN] | 475 nM | 361 nM | 29000 nM | 146 nM | 951 nM | 184 nM | 325 nM | 612 nM |  |  |  | 
9 | CC[C@@]1(O)C(=O)OCn2c1cc1c(c2=O)Cc2c-1nc1ccccc1c2/C=N/CCCC(=O)O[C@@H](C(=O)O[C@H]1C[C@@]2(O)[C@@H](OC(=O)c3ccccc3)[C@@H]3[C@]4(OC(C)=O)CO[C@@H]4C[C@H](O)[C@@]3(C)C(=O)[C@H](OC(C)=O)C(=C1C)C2(C)C)[C@@H](NC(=O)c1ccccc1)c1ccccc1 | 19.4 nM | 34.1 nM | 56.3 nM | 1.5 nM | 1.9 nM | 1 nM | 0.34 nM | 1.9 nM | 0.98 nM |  | 244 nM | 
10 | CC[C@@]1(O)C(=O)OCn2c1cc1c(c2=O)Cc2c-1nc1ccccc1c2/C=N/CCC(=O)O[C@@H](C(=O)O[C@H]1C[C@@]2(O)[C@@H](OC(=O)c3ccccc3)[C@@H]3[C@]4(OC(C)=O)CO[C@@H]4C[C@H](O)[C@@]3(C)C(=O)[C@H](OC(C)=O)C(=C1C)C2(C)C)[C@@H](NC(=O)c1ccccc1)c1ccccc1 | 14.8 nM | 26.7 nM | 62.4 nM | 1.3 nM | 2.6 nM | 1.6 nM | 3 nM | 3.7 nM | 0.73 nM |  | 178 nM | 
11 | COc1cc([C@@H]2c3cc4c(cc3[C@@H](Nc3ccc(C(=O)NCCCC(=O)O[C@H]5C[C@H]6OC[C@@]6(OC(C)=O)[C@H]6[C@H](OC(=O)c7ccccc7)[C@]7(O)C[C@H](OC(=O)[C@H](O)[C@@H](NC(=O)c8ccccc8)c8ccccc8)C(C)=C([C@@H](OC(C)=O)C(=O)[C@]56C)C7(C)C)cc3)[C@H]3COC(=O)[C@H]23)OCO4)cc(OC)c1O |  | 125 nM |  | 347 nM | 1320 nM | 104 nM |  |  |  |  |  | inactive
12 | COc1ccc2c(c1)[C@@H](NC(=O)CCC(=O)O[C@@H](C(=O)O[C@H]1C[C@@]3(O)[C@@H](OC(=O)c4ccccc4)[C@@H]4[C@]5(OC(C)=O)CO[C@@H]5C[C@H](O)[C@@]4(C)C(=O)[C@H](OC(C)=O)C(=C1C)C3(C)C)[C@@H](NC(=O)c1ccccc1)c1ccccc1)CCc1cc(OC)c(OC)c(OC)c1-2 | 70.4 nM | 29.2 nM |  | 21.6 nM | 28.5 nM | 14 nM | 23.7 nM | 34.4 nM | 15.8 nM | < 50% |  | 
13 | COc1cc2c(c(OC)c1OC(=O)CCC(=O)O[C@@H](C(=O)O[C@H]1C[C@@]3(O)[C@@H](OC(=O)c4ccccc4)[C@@H]4[C@]5(OC(C)=O)CO[C@@H]5C[C@H](O)[C@@]4(C)C(=O)[C@H](OC(C)=O)C(=C1C)C3(C)C)[C@@H](NC(=O)c1ccccc1)c1ccccc1)-c1ccc(OC)c(=O)cc1[C@@H](NC(C)=O)CC2 | 50.7 nM | 26.5 nM |  | 19 nM | 27.3 nM | 10.6 nM | 12.9 nM | 31.9 nM | 13.8 nM | < 50% |  | 
14 | COc1cc([C@@H]2c3cc4c(cc3[C@@H](N)[C@H]3COC(=O)[C@H]23)OCO4)cc(OC)c1O | 1230 nM | 686 nM | 2050 nM | 111 nM | 1070 nM | 739 nM | 680 nM | 3110 nM |  |  |  | 
15 | COc1ccc2c(c1)[C@@H](/N=C/c1ccc(C(=O)O[C@@H](C(=O)O[C@H]3C[C@@]4(O)[C@@H](OC(=O)c5ccccc5)[C@@H]5[C@]6(OC(C)=O)CO[C@@H]6C[C@H](O)[C@@]5(C)C(=O)[C@H](OC(C)=O)C(=C3C)C4(C)C)[C@@H](NC(=O)c3ccccc3)c3ccccc3)cc1)CCc1cc(OC)c(OC)c(OC)c1-2 |  |  | 308 nM | 5.4 nM | 3.8 nM | 2.3 nM |  |  | 43 nM |  |  | 
16 | COc1cc2c(c(OC)c1O)-c1ccc(SC)c(=O)cc1[C@@H](NC(C)=O)CC2 | 112 nM | 59.9 nM | 7430 nM | 47.9 nM | 99.8 nM | 43.6 nM | 59.9 nM | 114 nM |  |  |  | 
17 | CC[C@@]1(O)C(=O)OCn2c1cc1c(c2=O)Cc2c-1nc1ccccc1c2CNCCC(=O)O[C@@H](C(=O)O[C@H]1C[C@@]2(O)[C@@H](OC(=O)c3ccccc3)[C@@H]3[C@]4(OC(C)=O)CO[C@@H]4C[C@H](O)[C@@]3(C)C(=O)[C@H](OC(C)=O)C(=C1C)C2(C)C)[C@@H](NC(=O)c1ccccc1)c1ccccc1 | 3.1 nM | 2.7 nM | 2050 nM | 1.9 nM | 2.6 nM | 1.5 nM | 1.2 nM | 2.3 nM | 2.09 nM |  | 6130 nM | 
18 | COc1cc([C@@H]2c3cc4c(cc3[C@@H](Nc3ccc(C(=O)NCCC(=O)O[C@H]5C[C@H]6OC[C@@]6(OC(C)=O)[C@H]6[C@H](OC(=O)c7ccccc7)[C@]7(O)C[C@H](OC(=O)[C@H](O)[C@@H](NC(=O)c8ccccc8)c8ccccc8)C(C)=C([C@@H](OC(C)=O)C(=O)[C@]56C)C7(C)C)cc3)[C@H]3COC(=O)[C@H]23)OCO4)cc(OC)c1O | 86.3 nM | 43.9 nM |  | 31.6 nM | 45.6 nM | 20.7 nM | 22.1 nM | 83.4 nM |  | < 50% | 3280 nM | 
19 | CC[C@@]1(O)C(=O)OCn2c1cc1c(c2=O)Cc2c-1nc1ccccc1c2C=O | 18.4 nM | 4.3 nM | 25 nM | 80.6 nM | 12.8 nM | 4.3 nM | 4.3 nM | 7.7 nM |  |  |  | 
20 | COc1cc([C@@H]2c3cc4c(cc3[C@@H](NCc3ccc(C(=O)O[C@H]5C[C@H]6OC[C@@]6(OC(C)=O)[C@H]6[C@H](OC(=O)c7ccccc7)[C@]7(O)C[C@H](OC(=O)[C@H](O)[C@@H](NC(=O)c8ccccc8)c8ccccc8)C(C)=C([C@@H](OC(C)=O)C(=O)[C@]56C)C7(C)C)cc3)[C@H]3COC(=O)[C@H]23)OCO4)cc(OC)c1O | 192 nM | 68.2 nM | 5200 nM | 87.4 nM | 124 nM | 75.7 nM | 128 nM | 168 nM |  |  |  | 
